# Literature values in US20080044452A1, “DRUG DELIVERY SYSTEM FOR TREATMENT OF TRANSITIONAL CELL CARCINOMA” (priority 2006, published 2008).
smiles,measurement,value
CO[C@@]12[C@H](COC(N)=O)C3=C(C(=O)C(C)=C(N)C3=O)N1C[C@@H]1N[C@@H]12 [Mitomycin C],stability in acidic urine,not stable in acidic urine
